These results are taken from patent US20100248390A1, “COMPOSITIONS AND METHODS FOR IDENTIFYING LIGANDS OF ODORANT RECEPTORS” (DUKE UNIVERSITY, priority 2009, published 2010).

Assay [1] deals with mouse odorant receptors (ORs). The assay can be described thus: CRE-luciferase assay of odorant receptor activation (Dual-Glo, Hana3A cells, RTP1S), dose-response EC50. It is filed as cell-based. The following applies: for log EC50, MOR271-1 / log EC50 (Table 4 value), MOR271-1: receptor MOR271-1; for log EC50 (Table 4 value), MOR258-17: receptor MOR258-17; for log EC50 (Table 4 value), MOR273-1: receptor MOR273-1; for log EC50 (Table 4 value), MOR30-1: receptor MOR30-1; for log EC50 (Table 4 value), MOR37-1: receptor MOR37-1; for log EC50 (Table 4 value), MOR5-1: receptor MOR5-1; for log EC50 (Table 4 value), MOR33-1: receptor MOR33-1. The text has this:
(§1) Cloning mouse and human ORs. […] OR open reading frames were amplified from genomic DNA using proofreading KOD DNA polymerase (Toyobo/Novagen) and subcloned into pCI expression vectors (Promega) containing the first 20 residues of human rhodopsin (Rho tag). The sequences of the cloned receptors were verified by sequencing (3100 Genetic Analyzer, ABI Biosystems). Immunocytochemistry and FACS analysis. […] For FACS analysis, phycoerythrin (PE)-conjugated anti-mouse IgG (Jackson Immunologicals) was used. In order to monitor the transfection efficiency, Green Fluorescent Protein (GFP) was co-transfected with the OR. The intensity of receptor cell surface expression was calculated as the ratio of PE and GFP expression. 7-aminoactinomycin D (Calbiochem) was added before flow cytometry to mark dead cells which were excluded from the analysis. The gate and mean of PE positive cells was normalized by GFP values. Luciferase assay. […] Odorant receptor activation leads to an increase in intracellular cAMP; CRE-luciferase (Stratagene) was used to measure this change. […] Hana3A cells were plated on poly-D-lysine-coated 96-well plates (BioCoat; Becton Dickinson). […] For each 96-well plate transfected, 1 μg of CRE-Luc, 1 μg of pRL-SV40, 5 μg of odorant receptor plasmid, and 1 μg of RTP1S was used. Approximately 24 hours post transfection, the medium was replaced with CD293 chemically defined medium (Gibco) and the plate was incubed for 30 min at 37° C. The medium was then replaced with 25 μL of odorant solution diluted in CD293 and the plate was incubated for 4 hrs at 37° C. and 5% CO2. The manufacturer's protocols for measuring luciferase and Renilla luciferase activities was followed. […] All luminescence values were divided by the Renilla Luciferase activity to control for transfection efficiency in a given well. Normalized luciferase activity was calculated using the formula (LN−Lmin)/(Lmax−Lmin), where LN is the luminescence of firefly luciferase in response to the odorant, Lmin is the minimum luciferase value on a plate or set of plates, and Lmax is the maximum luciferase value on a plate or set of plates. The data was analyzed using Microsoft Excel and GraphPad Prism 4. Screening procedure. The entire OR library was stimulated with eight separate odorant mixtures formed from 93 odorants (FIG. 12). […] A comparison between the 93 individual odorants at a 100 μM dose and a no-odor control was performed for all 290 […]. Each comparison was performed in triplicate; statistical significance was assessed by t-test (uncorrected for multiple comparisons). […] A single odorant was used on each plate to avoid cross-contamination, and each OR odorant dose was tested at least three times. The data was fit to a sigmoidal curve. […] Physicochemical descriptors. […] Receptor descriptors. […] Correlations between descriptors and responses. […] All odorants for which there were fewer than 3 responsive receptors were eliminated. For all remaining odorant pairs the Pearson correlation between EC50 vectors and the Euclidean distance between descriptor vectors was calculated. The Pearson correlation between these two sets of distances was then measured. Optimizing descriptors. […] In this method one begins with an empty set of descriptors. Each descriptor is combined with the previous set of descriptors and correlation values are computed for all of these candidate sets of descriptors. To reduce overfitting, the data is randomly divided into ten subsets and correlation values are computed for each leave-one out subset. The final correlation coefficient for each set of descriptors is the average of the correlation coefficients for each subset. The set with the best correlation coefficient then becomes the new set of descriptors and the process is repeated until the correlation coefficient increases by less than 0.004 in three consecutive iterations.

Assay [2] concerns the target T1, human odorant receptors (ORs) (Homo sapiens, UniProt Q9Y3N9).
T1 construct: OR open reading frames were amplified from genomic DNA; expressed in transfected cells; host or cells: Hana3A cells, co-transfected with RTP1S, CRE-luciferase and pRL-SV40
T1 sequence (Q9Y3N9 1-320): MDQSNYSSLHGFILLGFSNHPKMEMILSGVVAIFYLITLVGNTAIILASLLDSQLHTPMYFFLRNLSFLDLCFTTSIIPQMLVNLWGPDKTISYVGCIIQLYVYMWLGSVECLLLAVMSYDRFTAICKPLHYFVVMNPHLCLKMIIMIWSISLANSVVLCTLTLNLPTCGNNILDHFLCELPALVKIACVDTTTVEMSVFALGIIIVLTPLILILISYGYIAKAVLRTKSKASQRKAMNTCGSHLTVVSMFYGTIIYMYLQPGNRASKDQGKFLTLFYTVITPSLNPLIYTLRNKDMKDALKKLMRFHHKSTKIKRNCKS
The description is as above. The class given is cell-based. The following applies: receptor OR2W1.
Text: as §1, with “For all remaining odorant pairs the Pearson correlation between EC50 vectors and the Euclidean distance between descriptor vectors was calculated.” left out, “subset.” for “subset. The set with the best correlation coefficient then becomes the new set of descriptors and the process is repeated until the correlation coefficient increases by less than 0.004 in three consecutive iterations.”
The entire OR library was stimulated with one of 8 odorant mixtures drawn from 93 odorants chosen to represent diverse functional groups, sizes, and structures (Table 3). Each mixture was applied at five different concentrations. […] The 93 odorants were then applied individually at 100 μM to the 290 mixture-responsive ORs.

Where [3] appears, read: read-out: log EC50 (Table 4 value), OR2W1 (converted).
Setting [4] is: read-out: log EC50 of odorant at OR2W1 (0 = no response) (converted).

The structures appear in SMILES notation. Counter-ions that a name gives are not always drawn. Like-named read-outs stand apart in the source and are kept apart here.

Broadly, the EC50 is the concentration that produces a half-maximal response.

As for `CCC(C(=O)O)c1ccccc1` (single isomer, unassigned; (-)) [(−)-2-Phenylbutric acid], in assay [1] (receptor MOR2-1, 0 = no response), the “log EC50, MOR2-1” value is recorded as −2.982.

In the case of `CCCCCO` [1-Pentanol], the “log EC50, MOR41-1” value in assay [1] (receptor MOR41-1, 0 = no response) is recorded as −3.537.

Consider `CCCCC(C)=O` [2-Hexanone], for which the EC50 in assay [2] (0 = no response, read-out: log EC50, OR2W1 (converted)) is 73.3 µM. In assay [1] (0 = no response), the “log EC50, MOR271-1” value is on record as −4.936. The “log EC50, MOR272-1” value in assay [1] (receptor MOR272-1, 0 = no response) was −4.251.

Consider `CCCC(C)=O` [2-Penonone], for which the “log EC50, MOR271-1” value in assay [1] (0 = no response) was −5.111.

On to `O=c1cc(O)c2ccccc2o1` [4-Hydroxycoumarin], for which, in assay [1] (receptor MOR41-1), the “log EC50 (Table 4 value), MOR41-1” value is listed as −4.344.

`CC12CCC(CC1=O)C2(C)C` (stereo not drawn) [(−)-Camphor]: the “log EC50, MOR107-1” value in assay [1] (receptor MOR107-1, 0 = no response) is recorded as −3.704. The “log EC50, MOR128-2” value in assay [1] (receptor MOR128-2, 0 = no response) is reported as −4.373. The “log EC50, MOR138-1” value in assay [1] (receptor MOR138-1, 0 = no response) is given as −4.952. Moreover, in assay [1] (receptor MOR139-1, 0 = no response), the “log EC50, MOR139-1” value was −3.902. Also, in assay [1] (receptor MOR189-1, 0 = no response), the “log EC50, MOR189-1” value was −4.839. Further, the “log EC50, MOR277-1” value in assay [1] (receptor MOR277-1, 0 = no response) is reported as −3.861.

As to `CCCCCOC(=O)CCCCC` [Amyl hexanote], the “log EC50 (Table 4 value), MOR258-17” value in assay [1] is −4.462.

Take `c1ccccc1` [Benzene]: the “log EC50 (Table 4 value), MOR271-1” value in assay [1] is on record as −4.005.

Consider `CCCCOC=O` [Butyl formate], for which, in assay [2] (setting [3]), the EC50 was 37.4 µM.

Turning to `O=C1CCCCC1` [Cyclohexanone], the “log EC50 (Table 4 value), MOR41-1” value in assay [1] (receptor MOR41-1) was −3.456. Besides, the “log EC50 (Table 4 value), MOR136-1” value in assay [1] (receptor MOR136-1) was −3.065. Also, the “log EC50 (Table 4 value), MOR139-1” value in assay [1] (receptor MOR139-1) is reported as −3.138. In addition, the “log EC50 (Table 4 value), MOR185-1” value in assay [1] (receptor MOR185-1) was −3.594. For the same compound, in assay [1] (receptor MOR251-1), the “log EC50 (Table 4 value), MOR251-1” value was −3.193. Also, the “log EC50 (Table 4 value), MOR253-1” value in assay [1] (receptor MOR253-1) is listed as −3.219. The “log EC50 (Table 4 value), MOR258-1” value in assay [1] (receptor MOR258-1) was −3.824. In assay [1], the “log EC50 (Table 4 value), MOR258-17” value is given as −4.1; the “log EC50 (Table 4 value), MOR271-1” value is recorded as −3.463; the “log EC50 (Table 4 value), MOR273-1” value is −3.208. In assay [1] (receptor MOR272-1), the “log EC50 (Table 4 value), MOR272-1” value was −3.254. Besides, the “log EC50 (Table 4 value), MOR277-1” value in assay [1] (receptor MOR277-1) is −3.568.

As for `CCCCCCCCCC=O` [Daconal], in assay [1], the “log EC50 (Table 4 value), MOR30-1” value is given as −4.033 and the “log EC50 (Table 4 value), MOR37-1” value is reported as −3.477.

Regarding `CCCCCCCCCC(=O)O` [Decanoic acid], in assay [2] (setting [3]), the EC50 was 175 µM. Moreover, in assay [1], the “log EC50 (Table 4 value), MOR5-1” value is reported as −3.749; the “log EC50 (Table 4 value), MOR30-1” value is recorded as −4.987; the “log EC50 (Table 4 value), MOR33-1” value is listed as −4.487; the “log EC50 (Table 4 value), MOR37-1” value is reported as −4.323. The “log EC50 (Table 4 value), MOR258-17” value in assay [1] is on record as −4.627. For the same compound, the “log EC50 (Table 4 value), MOR25-1” value in assay [1] (receptor MOR25-1) is on record as −4.194. For the same compound, the “log EC50 (Table 4 value), MOR40-1” value in assay [1] (receptor MOR40-1) is listed as −4.121. The “log EC50 (Table 4 value), MOR203-1” value in assay [1] (receptor MOR203-1) is given as −3.751. Also, in assay [1] (receptor MOR260-1), the “log EC50 (Table 4 value), MOR260-1” value is reported as −3.542.

As to `CCOC(=O)C(C)C` [Ethyl isobutyrate], in assay [1], the “log EC50 (Table 4 value), MOR271-1” value is on record as −4.077 and the “log EC50 (Table 4 value), MOR273-1” value is on record as −5.761. Moreover, the “log EC50 (Table 4 value), MOR272-1” value in assay [1] (receptor MOR272-1) was −5.25.

With `CCCCCCC(=O)O` [Heptanoic acid], the “log EC50 (Table 4 value), MOR1-1” value in assay [1] (receptor MOR1-1) is recorded as −3.823. In addition, in assay [1], the “log EC50 (Table 4 value), MOR5-1” value is −3.583; the “log EC50 (Table 4 value), MOR30-1” value is −3.575; the “log EC50 (Table 4 value), MOR33-1” value is on record as −4.148. Besides, in assay [1] (receptor MOR23-1), the “log EC50 (Table 4 value), MOR23-1” value was −4.856. For the same compound, the “log EC50 (Table 4 value), MOR31-1” value in assay [1] (receptor MOR31-1) is −5.2.

Consider `CCCCCCC=O` [Heptonal], for which the “log EC50 (Table 4 value), OR2W1” value in assay [2] is −4.056.

Consider `CCCCCCO` [Hexanol], for which the “log EC50 (Table 4 value), OR2W1” value in assay [2] was −5.102. The “log EC50 (Table 4 value), MOR1-1” value in assay [1] (receptor MOR1-1) is on record as −3.987. Moreover, the “log EC50 (Table 4 value), MOR4-1” value in assay [1] (receptor MOR4-1) is recorded as −3.231. The “log EC50 (Table 4 value), MOR271-1” value in assay [1] was −3.322.

As to `CCCCCCOC(C)=O` [Hexyl acetate], the EC50 in assay [2] (setting [4]) was 13.7 µM.

Consider `CCCCCCCC=O` [Octanal], for which the EC50 in assay [2] (setting [4]) is 43.6 µM.

Turning to `CCCCC(=O)O` [Pentanoic acid], in assay [1] (receptor MOR1-1), the “log EC50 of odorant at MOR1-1 (0 = no response)” value was −4.813.

Regarding `COc1cc(C(=O)O)ccc1O` [Vanillic acid], in assay [1] (receptor MOR9-1), the “log EC50 of odorant at MOR9-1 (0 = no response)” value was −6.334. Further, the “log EC50 of odorant at MOR15-1 (0 = no response)” value in assay [1] (receptor MOR15-1) was −3.587.
